Tested on: 941728-121-R-J1-PDC complex spheroid viability
Experiment: Anticancer human tumor 941728-121-R-J1-PDC patient-derived lung adenocarcinoma cell line growth inhibition [RAS]
Settings: for IC50: curve of first compound; for viability, T/C: stronger effect = lower value
Outline: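 Tumour cells grown as complex spheroids with HUVEC endothelial cells and mesenchymal stem cells, treated with RAS pathway inhibitor combinations. Each agent spans half-log steps from near clinical Cmax, or 10 microM where Cmax is unknown.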
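Also: spheroids exposed to compounds for 7 days before readout.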
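For viability, T/C in this document: 100% = DMSO vehicle control viability.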

`CC(=O)OC12COC1CC(O)C1(C)C(=O)C(O)C3=C(C)C(OC(=O)C(O)C(NC(=O)OC(C)(C)C)c4ccccc4)CC(O)(C(OC(=O)c4ccccc4)C21)C3(C)C` (centres undefined) + CCn1c(-c2cccnc2C(C)OC)c2c3cc(ccc31)N1CCOC(CC(NC(=O)C(C(C)C)N(C)C(=O)C3(F)CCN(C(=O)C#CC(C)(C)N(C)C)CC3)C(=O)N3CCCC(N3)C(=O)OCC(C)(C)C2)C1 showed an IC50 (second compound 0.000949 µM) of under 31.6 nM, an IC50 (second compound 0.003 µM) of under 31.6 nM and an IC50 (second compound 0.00949 µM) of under 31.6 nM. The IC50 (second compound 0.03 µM) was under 31.6 nM, the IC50 (second compound 0.0949 µM) was under 31.6 nM and the IC50 (second compound 0.3 µM) was under 31.6 nM. The viability, T/C (second compound 0.000949 µM, first compound 0.0316 µM) was 18.3%, the viability, T/C (second compound 0.000949 µM, first compound 0.1 µM) was 15.4% and the viability, T/C (second compound 0.000949 µM, first compound 0.316 µM) was 11.9%. The viability, T/C (second compound 0.000949 µM, first compound 1 µM) was 15.6%, the viability, T/C (second compound 0.000949 µM, first compound 3.16 µM) was 15.1% and the viability, T/C (second compound 0.000949 µM, first compound 10 µM) was 14.2%. For the same compound, the viability, T/C (second compound 0.003 µM, first compound 0.0316 µM) was 17.3%, the viability, T/C (second compound 0.003 µM, first compound 0.1 µM) was 15.6% and the viability, T/C (second compound 0.003 µM, first compound 0.316 µM) was 13.1%. The viability, T/C (second compound 0.003 µM, first compound 1 µM) was 14.4%, the viability, T/C (second compound 0.003 µM, first compound 3.16 µM) was 14.9% and the viability, T/C (second compound 0.003 µM, first compound 10 µM) was 11.1%. For the same compound, the viability, T/C (second compound 0.00949 µM, first compound 0.0316 µM) was 16.9%, the viability, T/C (second compound 0.00949 µM, first compound 0.1 µM) was 13.9% and the viability, T/C (second compound 0.00949 µM, first compound 0.316 µM) was 13.1%. For the same compound, the viability, T/C (second compound 0.00949 µM, first compound 1 µM) was 13.8%, the viability, T/C (second compound 0.00949 µM, first compound 3.16 µM) was 12.7% and the viability, T/C (second compound 0.00949 µM, first compound 10 µM) was 12.7%. It also gave a viability, T/C (second compound 0.03 µM, first compound 0.0316 µM) of 17.6%, a viability, T/C (second compound 0.03 µM, first compound 0.1 µM) of 16.2% and a viability, T/C (second compound 0.03 µM, first compound 0.316 µM) of 14.4%. For the same compound, the viability, T/C (second compound 0.03 µM, first compound 1 µM) was 13%, the viability, T/C (second compound 0.03 µM, first compound 3.16 µM) was 14.6% and the viability, T/C (second compound 0.03 µM, first compound 10 µM) was 16.3%. For the same compound, the viability, T/C (second compound 0.0949 µM, first compound 0.0316 µM) was 15.9%, the viability, T/C (second compound 0.0949 µM, first compound 0.1 µM) was 15.1% and the viability, T/C (second compound 0.0949 µM, first compound 0.316 µM) was 16.1%. For the same compound, the viability, T/C (second compound 0.0949 µM, first compound 1 µM) was 15.3%, the viability, T/C (second compound 0.0949 µM, first compound 3.16 µM) was 13.6% and the viability, T/C (second compound 0.0949 µM, first compound 10 µM) was 17.3%. For the same compound, the viability, T/C (second compound 0.3 µM, first compound 0.0316 µM) was 16.8%, the viability, T/C (second compound 0.3 µM, first compound 0.1 µM) was 17.5% and the viability, T/C (second compound 0.3 µM, first compound 0.316 µM) was 16.6%. For the same compound, the viability, T/C (second compound 0.3 µM, first compound 1 µM) was 15.9%, the viability, T/C (second compound 0.3 µM, first compound 3.16 µM) was 15.8% and the viability, T/C (second compound 0.3 µM, first compound 10 µM) was 16.9%.

`CCc1c2c(nc3ccc(O)cc13)-c1cc3c(c(=O)n1C2)COC(=O)[C@]3(O)CC` + CCn1c(-c2cccnc2C(C)OC)c2c3cc(ccc31)N1CCOC(CC(NC(=O)C(C(C)C)N(C)C(=O)C3(F)CCN(C(=O)C#CC(C)(C)N(C)C)CC3)C(=O)N3CCCC(N3)C(=O)OCC(C)(C)C2)C1 was tested, and the IC50 (second compound 0.000949 µM) was under 0.949 nM, the IC50 (second compound 0.003 µM) was under 0.949 nM and the IC50 (second compound 0.00949 µM) was under 0.949 nM. For the same compound, the IC50 (second compound 0.03 µM) was under 0.949 nM, the IC50 (second compound 0.0949 µM) was under 0.949 nM and the IC50 (second compound 0.3 µM) was under 0.949 nM. For the same compound, the viability, T/C (second compound 0.000949 µM, first compound 0.000949 µM) was 23.7%, the viability, T/C (second compound 0.000949 µM, first compound 0.003 µM) was 18.9% and the viability, T/C (second compound 0.000949 µM, first compound 0.00949 µM) was 14.2%. The viability, T/C (second compound 0.000949 µM, first compound 0.03 µM) was 17.5%, the viability, T/C (second compound 0.000949 µM, first compound 0.0949 µM) was 11.7% and the viability, T/C (second compound 0.000949 µM, first compound 0.3 µM) was 6.82%. It also gave a viability, T/C (second compound 0.003 µM, first compound 0.000949 µM) of 25.2%, a viability, T/C (second compound 0.003 µM, first compound 0.003 µM) of 21.1% and a viability, T/C (second compound 0.003 µM, first compound 0.00949 µM) of 14.8%. The viability, T/C (second compound 0.003 µM, first compound 0.03 µM) was 14.4%, the viability, T/C (second compound 0.003 µM, first compound 0.0949 µM) was 12.2% and the viability, T/C (second compound 0.003 µM, first compound 0.3 µM) was 7.12%. The viability, T/C (second compound 0.00949 µM, first compound 0.000949 µM) was 22.4%, the viability, T/C (second compound 0.00949 µM, first compound 0.003 µM) was 16.3% and the viability, T/C (second compound 0.00949 µM, first compound 0.00949 µM) was 17.1%. For the same compound, the viability, T/C (second compound 0.00949 µM, first compound 0.03 µM) was 13.5%, the viability, T/C (second compound 0.00949 µM, first compound 0.0949 µM) was 11.2% and the viability, T/C (second compound 0.00949 µM, first compound 0.3 µM) was 7.23%. The viability, T/C (second compound 0.03 µM, first compound 0.000949 µM) was 22.5%, the viability, T/C (second compound 0.03 µM, first compound 0.003 µM) was 18.8% and the viability, T/C (second compound 0.03 µM, first compound 0.00949 µM) was 18%. For the same compound, the viability, T/C (second compound 0.03 µM, first compound 0.03 µM) was 16.2%, the viability, T/C (second compound 0.03 µM, first compound 0.0949 µM) was 9.36% and the viability, T/C (second compound 0.03 µM, first compound 0.3 µM) was 8.84%. The viability, T/C (second compound 0.0949 µM, first compound 0.000949 µM) was 19.7%, the viability, T/C (second compound 0.0949 µM, first compound 0.003 µM) was 19.7% and the viability, T/C (second compound 0.0949 µM, first compound 0.00949 µM) was 17.2%. For the same compound, the viability, T/C (second compound 0.0949 µM, first compound 0.03 µM) was 15.3%, the viability, T/C (second compound 0.0949 µM, first compound 0.0949 µM) was 10.7% and the viability, T/C (second compound 0.0949 µM, first compound 0.3 µM) was 9.1%. It also gave a viability, T/C (second compound 0.3 µM, first compound 0.000949 µM) of 21.8%, a viability, T/C (second compound 0.3 µM, first compound 0.003 µM) of 18% and a viability, T/C (second compound 0.3 µM, first compound 0.00949 µM) of 16.4%. For the same compound, the viability, T/C (second compound 0.3 µM, first compound 0.03 µM) was 14.2%, the viability, T/C (second compound 0.3 µM, first compound 0.0949 µM) was 10.8% and the viability, T/C (second compound 0.3 µM, first compound 0.3 µM) was 7.87%.

Source: PubChem BioAssay AID2060896 (Molecular Pharmacology Branch, DTP, NCI, 2025)
